IC50 data for 30 molecules are collected here from patent publication US9708312B2, “Dihydropyrimidinoisoquinolinones and pharmaceutical compositions thereof for the treatment of inflammatory disorders (GPR84 antagonists)” (GALAPAGOS NV, priority 2012, dated 2017).

This test has as its target T1, GPR84 (Homo sapiens, UniProt Q9NQS5).
T1 construct: expressed in transfected cells
Description: GPR84 [35S]GTPγS binding assay, HEPES buffer. Type of test: biochemical. As to conditions: 3,3′ di indolylmethane at EC80, membranes from stable cell line over expressing GPR84. As to the method: 1.1. Cell Based Assay: GTp-γ S Binding Assay.
The following assay can be used for determination of GPR84 activation.
The assay is performed in a 96 well plate where the following reagents are added. […] In a last step, 30 μL of a mixture consisting of membranes-GTPγS-SpA beads is added [mixture consists of 20 μg/well membranes derived from stable cell line over expressing GPR84 (membranes are pre-incubated with 0.1 μM GDP for 15 min at 4° C.), 0.1 nM [^35S]GTPγS (Perkin Elmer, NEG030) and 0.5 mg/well PVT-WGA SpA beads (Perkin Elmer, RPNQ0001)]. All components are diluted in assay buffer containing 20 mM HEPES pH 7.4; 5 mM MgCl2; 250 mM NaCl; 0.05% BSA; 75 ug/mL saponin Reactions are incubated for 90 min at room temperature followed by centrifugation at 2000 rpm during 15 min. Plates are read on a Topcount reader (Perkin Elmer) immediately after centrifugation (readout time, 1 min/well).
Background: Binding of GTPγS marks nucleotide exchange on a G protein.

T1 sequence (Q9NQS5 whole entry): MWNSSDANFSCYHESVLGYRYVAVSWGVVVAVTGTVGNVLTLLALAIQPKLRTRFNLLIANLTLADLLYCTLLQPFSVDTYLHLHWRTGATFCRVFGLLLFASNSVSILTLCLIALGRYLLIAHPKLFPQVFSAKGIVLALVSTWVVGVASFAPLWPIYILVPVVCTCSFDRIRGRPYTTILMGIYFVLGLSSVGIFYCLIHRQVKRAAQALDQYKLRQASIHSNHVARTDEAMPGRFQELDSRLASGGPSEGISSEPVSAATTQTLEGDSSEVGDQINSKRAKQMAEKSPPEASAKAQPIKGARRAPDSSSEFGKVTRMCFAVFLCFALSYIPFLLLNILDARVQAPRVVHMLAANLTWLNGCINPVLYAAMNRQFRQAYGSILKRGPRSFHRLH

For the molecule `O=c1nc(OCC2COc3ccccc3O2)cc2n1CCc1cc(OCCN3CCCC3)ccc1-2` (stereo not drawn) [compound 79, 2-(2,3-dihydro-benzo[1,4]dioxin-2-ylmethoxy)-9-(2-pyrrolidin-1-yl-ethoxy)-6,7-dihydro-pyrimido[6,1-a]isoquinolin-4-one], the IC50 – broadly, the concentration needed to halve the response being measured – was in the range of 100 to 500 nM.

In turn, `CN(C)c1ccc(-c2ccc3c(c2)CCn2c-3cc(OCC3CCCO3)nc2=O)cc1` (stereo not drawn) [compound 105, 9-(4-dimethylamino-phenyl)-2-(tetrahydro-furan-2-ylmethoxy)-6,7-dihydro-pyrimido[6,1-a]isoquinolin-4-one] registered an IC50 of 100 to 500 nM.

Molecule `COC(=O)c1cccc(COc2ccc3c(c2)CCn2c-3cc(OCC3CCCO3)nc2=O)c1` (stereo not drawn) [compound 27, 3-[4-oxo-2-(tetrahydro-furan-2-ylmethoxy)-6,7-dihydro-4H-pyrimido[6,1-a]isoquinolin-9-yloxymethyl]-benzoic acid methyl ester] gave an IC50 of 0.01 to 100 nM.

In turn, `CCOc1ccc(-c2ccc3c(c2)CCn2c-3cc(OCC3COc4ncccc4O3)nc2=O)cn1` (stereo not drawn) [compound 164, 2-(2,3-dihydro-[1,4]dioxino[2,3-b]pyridin-2-ylmethoxy)-9-(6-ethoxy-pyridin-3-yl)-6,7-dihydro-pyrimido[6,1-a]isoquinolin-4-one] gave a half-maximal inhibitory concentration (IC50) of 0.01 to 100 nM.

The molecule `COc1ncccc1-c1ccc2c(c1)CCn1c-2cc(OCC2COc3ncccc3O2)nc1=O` (stereo not drawn) [compound 145, 2-(2,3-dihydro-[1,4]dioxino[2,3-b]pyridin-2-ylmethoxy)-9-(2-methoxy-pyridin-3-yl)-6,7-dihydro-pyrimido[6,1-a]isoquinolin-4-one] displayed an IC50 of 0.01 to 100 nM.

Take `CCCn1nnnc1COc1ccc2c(c1)CCn1c-2cc(OCC2COc3ccccc3O2)nc1=O` (stereo not drawn) [compound 69, 2-(2,3-dihydro-benzo[1,4]dioxin-2-ylmethoxy)-9-(1-propyl-1H-tetrazol-5-ylmethoxy)-6,7-dihydro-pyrimido[6,1-a]isoquinolin-4-one]: the half-inhibitory concentration (IC50) lay in the range of 0.01 to 100 nM.

Take `CCOc1ncccc1-c1ccc2c(c1)CCn1c-2cc(OCC2COc3ncccc3O2)nc1=O` (stereo not drawn) [compound 163, 2-(2,3-dihydro-[1,4]dioxino[2,3-b]pyridin-2-ylmethoxy)-9-(2-ethoxy-pyridin-3-yl)-6,7-dihydro-pyrimido[6,1-a]isoquinolin-4-one]: the half-maximal inhibitory concentration (IC50) lay in the range of 0.01 to 100 nM.

Molecule `COc1ccc2c(c1)CCn1c-2cc(OCC2Cc3ccccc3O2)nc1=O` (stereo not drawn) [compound 5, 2-(2,3-dihydro-benzofuran-2-ylmethoxy)-9-methoxy-6,7-dihydro-pyrimido[6,1-a]isoquinolin-4-one] came in with a 50% inhibitory concentration (IC50) of 500 to 1000 nM.

The molecule `O=c1nc(OCC2CCCO2)cc2n1CCc1cc(OCc3ccc4ccccc4c3)ccc1-2` (stereo not drawn) [compound 37, 9-(naphthalen-2-ylmethoxy)-2-(tetrahydro-furan-2-ylmethoxy)-6,7-dihydro-pyrimido[6,1-a]isoquinolin-4-one] returned an IC50 of 0.01 to 100 nM.

Molecule `O=c1nc(OCC2CCCO2)cc2n1CCc1cc(OCc3cccc(Cl)c3)ccc1-2` (stereo not drawn) [compound 22, 9-(3-chloro-benzyloxy)-2-(tetrahydro-furan-2-ylmethoxy)-6,7-dihydro-pyrimido[6,1-a]isoquinolin-4-one] gave a concentration for half-maximal inhibition (IC50) of 0.01 to 100 nM.

Turning to `O=c1nc(OCC2COc3ncccc3O2)cc2n1CCc1cc(C#CCN3CCS(=O)(=O)CC3)ccc1-2` (stereo not drawn) [compound 174, 2-(2,3-dihydro-[1,4]dioxino[2,3-b]pyridin-2-ylmethoxy)-9-[3-(1,1-dioxo-thiomorpholin-4-yl)-prop-1-ynyl]-6,7-dihydro-pyrimido[6,1-a]isoquinolin-4-one], the IC50 was in the range of 100 to 500 nM.

For the molecule `N#Cc1cccc(-c2ccc3c(c2)CCn2c-3cc(OCC3CCCO3)nc2=O)c1` (stereo not drawn) [compound 95, 3-[4-Oxo-2-(tetrahydro-furan-2-ylmethoxy)-6,7-dihydro-4H-pyrimido[6,1-a]isoquinolin-9-yl]-benzonitrile], the IC50 was 100 to 500 nM.

As for `CC(O)(C#Cc1ccc2c(c1)CCn1c-2cc(OCC2COc3ncccc3O2)nc1=O)c1ccccc1` (stereo not drawn) [compound 187, 2-(2,3-Dihydro-[1,4]dioxino[2,3-b]pyridin-2-ylmethoxy)-9-(3-hydroxy-3-phenyl-but-1-ynyl)-6,7-dihydro-pyrimido[6,1-a]isoquinolin-4-one], the IC50 lay within 0.01 to 100 nM.

`O=c1nc(OCC2CCCO2)cc2n1CCc1cc(OCc3ccccn3)ccc1-2` (stereo not drawn) [compound 14, 9-(pyridin-2-ylmethoxy)-2-(tetrahydro-furan-2-ylmethoxy)-6,7-dihydro-pyrimido[6,1-a]isoquinolin-4-one] gave a half-inhibitory concentration (IC50) of 100 to 500 nM.

With `COc1cncc(-c2ccc3c(c2)CCn2c-3cc(OCC3COc4ncccc4O3)nc2=O)c1` (stereo not drawn) [compound 140, 2-(2,3-dihydro-[1,4]dioxino[2,3-b]pyridin-2-ylmethoxy)-9-(5-methoxy-pyridin-3-yl)-6,7-dihydro-pyrimido[6,1-a]isoquinolin-4-one], the IC50 fell in the range of 0.01 to 100 nM.

Consider `COc1cccc(-c2ccc3c(c2)CCn2c-3cc(OCC3COc4ncccc4O3)nc2=O)c1OC` (stereo not drawn) [compound 167, 2-(2,3-dihydro-[1,4]dioxino[2,3-b]pyridin-2-ylmethoxy)-9-(2,3-dimethoxy-phenyl)-6,7-dihydro-pyrimido[6,1-a]isoquinolin-4-one], for which the IC50 lay in the range of 0.01 to 100 nM.

`CNCC#Cc1ccc2c(c1)CCn1c-2cc(OCC2COc3ncccc3O2)nc1=O` (stereo not drawn) [compound 171, 2-(2,3-dihydro-[1,4]dioxino[2,3-b]pyridin-2-ylmethoxy)-9-(3-methylamino-prop-1-ynyl)-6,7-dihydro-pyrimido[6,1-a]isoquinolin-4-one] registered a half-inhibitory concentration (IC50) of 500 to 1000 nM.

Take `N#Cc1ccc2c(c1)CCn1c-2cc(OCC2COc3ncccc3O2)nc1=O` (stereo not drawn) [compound 152, 2-(2,3-dihydro-[1,4]dioxino[2,3-b]pyridin-2-ylmethoxy)-4-oxo-6,7-dihydro-4H-pyrimido[6,1-a]isoquinoline-9-carbonitrile]: the 50% inhibitory concentration (IC50) was in the range of 100 to 500 nM.

`O=c1nc(OCC2CCCO2)cc2n1CCc1cc(OCCc3ccccc3)ccc1-2` (stereo not drawn) [compound 12, 9-phenethyloxy-2-(tetrahydro-furan-2-ylmethoxy)-6,7-dihydro-pyrimido[6,1-a]isoquinolin-4-one] yielded an IC50 of 100 to 500 nM.

`NC(=O)c1ccc(-c2ccc3c(c2)CCn2c-3cc(OCC3CCCO3)nc2=O)cc1` (stereo not drawn) [compound 106, 4-[4-oxo-2-(tetrahydro-furan-2-ylmethoxy)-6,7-dihydro-4H-pyrimido[6,1-a]isoquinolin-9-yl]-benzamide] registered a half-inhibitory concentration (IC50) of 100 to 500 nM.

The molecule `CCc1nc(COc2ccc3c(c2)CCn2c-3cc(OCC3COc4ncccc4O3)nc2=O)no1` (stereo not drawn) [compound 155, 2-(2,3-dihydro-[1,4]dioxino[2,3-b]pyridin-2-ylmethoxy)-9-(5-ethyl-[1,2,4]oxadiazol-3-ylmethoxy)-6,7-dihydro-pyrimido[6,1-a]isoquinolin-4-one] came in with an IC50 of 0.01 to 100 nM.

Molecule `O=c1nc(OCC2CCCO2)cc2n1CCc1cc(OCc3ccc([N+](=O)[O-])cc3)ccc1-2` (stereo not drawn) [compound 33, 9-(4-nitro-benzyloxy)-2-(tetrahydro-furan-2-ylmethoxy)-6,7-dihydro-pyrimido[6,1-a]isoquinolin-4-one] had an IC50 of 0.01 to 100 nM.

For `O=c1nc(OCC2CCCO2)cc2n1CCc1cc(-c3ccccc3)ccc1-2` (stereo not drawn) [compound 96, 9-phenyl-2-(tetrahydro-furan-2-ylmethoxy)-6,7-dihydro-pyrimido[6,1-a]isoquinolin-4-one], the half-maximal inhibitory concentration (IC50) fell in the range of 100 to 500 nM.

Turning to `O=c1nc(OCC2COc3ccccc3O2)cc2n1CCc1cc(OCCN3CCCCC3)ccc1-2` (stereo not drawn) [compound 80, 2-(2,3-dihydro-benzo[1,4]dioxin-2-ylmethoxy)-9-(2-piperidin-1-yl-ethoxy)-6,7-dihydro-pyrimido[6,1-a]isoquinolin-4-one], the half-maximal inhibitory concentration (IC50) lay in the range of 100 to 500 nM.

Molecule `Cc1ccc(COc2ccc3c(c2)CCn2c-3cc(OCC3CCCO3)nc2=O)cc1` (stereo not drawn) [compound 35, 9-(4-methyl-benzyloxy)-2-(tetrahydro-furan-2-ylmethoxy)-6,7-dihydro-pyrimido[6,1-a]isoquinolin-4-one] registered an IC50 of 0.01 to 100 nM.

`CCCn1nnnc1COc1ccc2c(c1)CCn1c-2cc(OCC2CCCO2)nc1=O` (stereo not drawn) [compound 64, 9-(1-propyl-1H-tetrazol-5-ylmethoxy)-2-(tetrahydro-furan-2-ylmethoxy)-6,7-dihydro-pyrimido[6,1-a]isoquinolin-4-one] displayed an IC50 of 100 to 500 nM.

As for `Cn1cc(-c2cccc(COc3ccc4c(c3)CCn3c-4cc(OCC4CCCO4)nc3=O)n2)cn1` (stereo not drawn) [compound 55, 9-[6-(1-methyl-1H-pyrazol-4-yl)-pyridin-2-ylmethoxy]-2-(tetrahydro-furan-2-ylmethoxy)-6,7-dihydro-pyrimido[6,1-a]isoquinolin-4-one], the IC50 was in the range of 100 to 500 nM.

As for `O=c1nc(OCC2CCCO2)cc2n1CCc1cc(OCC3CC3)ccc1-2` (stereo not drawn) [compound 11, 9-cyclopropylmethoxy-2-(tetrahydro-furan-2-ylmethoxy)-6,7-dihydro-pyrimido[6,1-a]isoquinolin-4-one], the IC50 is 100 to 500 nM.

In the case of `CN(CC#Cc1ccc2c(c1)CCn1c-2cc(OCC2COc3ncccc3O2)nc1=O)Cc1ccccc1` (stereo not drawn) [compound 173, 9-[3-(benzyl-methyl-amino)-prop-1-ynyl]-2-(2,3-dihydro-[1,4]dioxino[2,3-b]pyridin-2-ylmethoxy)-6,7-dihydro-pyrimido[6,1-a]isoquinolin-4-one], the half-inhibitory concentration (IC50) fell in the range of 100 to 500 nM.

`CN1CCN(CCCOc2ccc3c(c2)CCn2c-3cc(OCC3COc4ccccc4O3)nc2=O)CC1` (stereo not drawn) [compound 84, 2-(2,3-dihydro-benzo[1,4]dioxin-2-ylmethoxy)-9-[3-(4-methyl-piperazin-1-yl)-propoxy]-6,7-dihydro-pyrimido[6,1-a]isoquinolin-4-one] registered a half-inhibitory concentration (IC50) of 100 to 500 nM.
